ChEMBL document CHEMBL5291721, “A preclinical secondary pharmacology resource illuminates target-adverse drug reaction associations of marketed drugs” (Nat Commun, 2023)

Experiments:
[1] = target: T1, Neuropeptide Y receptor type 1 (Homo sapiens, UniProt P25929)
T1 sequence (P25929 whole entry): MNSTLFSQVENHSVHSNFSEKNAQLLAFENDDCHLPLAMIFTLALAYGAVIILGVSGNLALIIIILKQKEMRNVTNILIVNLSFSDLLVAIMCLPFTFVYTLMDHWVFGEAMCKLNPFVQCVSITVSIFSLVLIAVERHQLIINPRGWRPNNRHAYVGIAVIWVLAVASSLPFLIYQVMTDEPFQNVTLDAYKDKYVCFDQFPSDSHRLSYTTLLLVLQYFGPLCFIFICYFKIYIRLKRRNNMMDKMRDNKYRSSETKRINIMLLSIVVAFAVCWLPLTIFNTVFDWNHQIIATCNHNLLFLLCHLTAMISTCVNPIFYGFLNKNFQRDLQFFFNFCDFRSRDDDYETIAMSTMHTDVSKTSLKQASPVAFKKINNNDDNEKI

[2] = target: Muscarinic acetylcholine receptor M3 (Homo sapiens, UniProt P20309)
[3] = target: cGMP-inhibited 3',5'-cyclic phosphodiesterase 3A (Homo sapiens, UniProt Q14432); type: functional
[4] = target: T2, Muscarinic acetylcholine receptor M1 (Homo sapiens, UniProt P11229); type: functional
T2 sequence (P11229 whole entry): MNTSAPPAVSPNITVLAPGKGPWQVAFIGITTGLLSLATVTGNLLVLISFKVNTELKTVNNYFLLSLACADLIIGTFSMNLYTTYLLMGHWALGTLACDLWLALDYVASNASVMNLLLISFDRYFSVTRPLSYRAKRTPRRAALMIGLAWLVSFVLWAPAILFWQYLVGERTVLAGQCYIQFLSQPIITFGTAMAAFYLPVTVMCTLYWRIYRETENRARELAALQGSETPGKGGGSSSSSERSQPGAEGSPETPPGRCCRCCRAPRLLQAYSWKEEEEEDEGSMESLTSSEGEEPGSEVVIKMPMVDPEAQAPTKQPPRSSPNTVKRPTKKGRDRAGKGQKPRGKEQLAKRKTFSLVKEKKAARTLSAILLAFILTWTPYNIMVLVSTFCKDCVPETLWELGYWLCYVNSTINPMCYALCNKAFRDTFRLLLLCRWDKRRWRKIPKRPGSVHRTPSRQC

[5] = target: T3, Progesterone receptor (Homo sapiens, UniProt P06401); type: functional
T3 sequence (P06401 whole entry): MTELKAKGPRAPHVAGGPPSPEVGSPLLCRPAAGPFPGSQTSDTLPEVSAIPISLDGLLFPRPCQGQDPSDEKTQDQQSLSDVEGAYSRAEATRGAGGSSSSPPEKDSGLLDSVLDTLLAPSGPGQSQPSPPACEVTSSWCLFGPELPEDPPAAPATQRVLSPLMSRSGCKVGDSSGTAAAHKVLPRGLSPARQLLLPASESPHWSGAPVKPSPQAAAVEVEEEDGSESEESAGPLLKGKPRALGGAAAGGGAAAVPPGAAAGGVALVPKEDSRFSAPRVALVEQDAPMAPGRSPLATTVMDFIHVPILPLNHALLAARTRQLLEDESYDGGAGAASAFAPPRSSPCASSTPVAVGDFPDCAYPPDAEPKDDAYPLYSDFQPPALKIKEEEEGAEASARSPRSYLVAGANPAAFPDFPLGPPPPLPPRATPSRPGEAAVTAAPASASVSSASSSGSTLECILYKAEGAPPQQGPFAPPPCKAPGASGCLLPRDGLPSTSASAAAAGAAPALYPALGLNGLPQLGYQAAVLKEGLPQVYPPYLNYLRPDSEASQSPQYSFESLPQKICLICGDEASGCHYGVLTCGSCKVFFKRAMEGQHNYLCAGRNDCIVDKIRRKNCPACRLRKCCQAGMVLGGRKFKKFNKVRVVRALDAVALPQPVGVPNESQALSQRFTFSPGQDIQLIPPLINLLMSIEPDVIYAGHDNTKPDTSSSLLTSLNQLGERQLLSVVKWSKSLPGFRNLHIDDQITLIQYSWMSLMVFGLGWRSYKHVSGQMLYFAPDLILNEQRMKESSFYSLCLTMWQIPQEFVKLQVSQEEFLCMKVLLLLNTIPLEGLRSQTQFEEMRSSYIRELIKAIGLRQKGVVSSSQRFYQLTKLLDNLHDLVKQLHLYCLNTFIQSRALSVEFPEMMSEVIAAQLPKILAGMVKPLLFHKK

[6] = target: 5-hydroxytryptamine receptor 2A (Homo sapiens, UniProt P28223); type: functional, cell-based
[7] = target: T3, Progesterone receptor
[8] = target: Histamine H2 receptor (Homo sapiens, UniProt P25021); type: functional, cell-based
[9] = target: Mu-type opioid receptor (Homo sapiens, UniProt P35372)
[10] = target: T4, Thromboxane A2 receptor (Homo sapiens, UniProt P21731)
T4 sequence (P21731 whole entry): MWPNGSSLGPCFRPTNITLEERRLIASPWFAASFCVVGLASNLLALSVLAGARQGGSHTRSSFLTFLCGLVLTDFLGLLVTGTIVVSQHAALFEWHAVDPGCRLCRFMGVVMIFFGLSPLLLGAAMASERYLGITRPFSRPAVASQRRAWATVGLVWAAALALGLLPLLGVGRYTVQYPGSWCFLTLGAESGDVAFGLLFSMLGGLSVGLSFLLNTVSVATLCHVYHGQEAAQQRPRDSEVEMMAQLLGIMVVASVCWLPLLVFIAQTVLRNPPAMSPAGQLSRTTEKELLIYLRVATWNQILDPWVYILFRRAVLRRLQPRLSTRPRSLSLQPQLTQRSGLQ

[11] = target: T2, Muscarinic acetylcholine receptor M1; type: functional, cell-based
Note: assay procedure not described here.

Sequence of Histamine H2 receptor (P25021 whole entry): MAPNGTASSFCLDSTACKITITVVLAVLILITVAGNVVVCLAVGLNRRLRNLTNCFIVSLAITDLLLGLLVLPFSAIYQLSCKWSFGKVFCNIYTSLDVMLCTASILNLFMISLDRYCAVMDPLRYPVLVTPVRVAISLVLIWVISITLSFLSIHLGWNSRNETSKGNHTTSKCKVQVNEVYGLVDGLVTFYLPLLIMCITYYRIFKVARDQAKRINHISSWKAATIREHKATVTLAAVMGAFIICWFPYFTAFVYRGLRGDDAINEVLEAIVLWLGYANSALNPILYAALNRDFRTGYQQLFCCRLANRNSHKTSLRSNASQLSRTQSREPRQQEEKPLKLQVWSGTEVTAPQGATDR
Sequence of cGMP-inhibited 3',5'-cyclic phosphodiesterase 3A (Q14432 whole entry): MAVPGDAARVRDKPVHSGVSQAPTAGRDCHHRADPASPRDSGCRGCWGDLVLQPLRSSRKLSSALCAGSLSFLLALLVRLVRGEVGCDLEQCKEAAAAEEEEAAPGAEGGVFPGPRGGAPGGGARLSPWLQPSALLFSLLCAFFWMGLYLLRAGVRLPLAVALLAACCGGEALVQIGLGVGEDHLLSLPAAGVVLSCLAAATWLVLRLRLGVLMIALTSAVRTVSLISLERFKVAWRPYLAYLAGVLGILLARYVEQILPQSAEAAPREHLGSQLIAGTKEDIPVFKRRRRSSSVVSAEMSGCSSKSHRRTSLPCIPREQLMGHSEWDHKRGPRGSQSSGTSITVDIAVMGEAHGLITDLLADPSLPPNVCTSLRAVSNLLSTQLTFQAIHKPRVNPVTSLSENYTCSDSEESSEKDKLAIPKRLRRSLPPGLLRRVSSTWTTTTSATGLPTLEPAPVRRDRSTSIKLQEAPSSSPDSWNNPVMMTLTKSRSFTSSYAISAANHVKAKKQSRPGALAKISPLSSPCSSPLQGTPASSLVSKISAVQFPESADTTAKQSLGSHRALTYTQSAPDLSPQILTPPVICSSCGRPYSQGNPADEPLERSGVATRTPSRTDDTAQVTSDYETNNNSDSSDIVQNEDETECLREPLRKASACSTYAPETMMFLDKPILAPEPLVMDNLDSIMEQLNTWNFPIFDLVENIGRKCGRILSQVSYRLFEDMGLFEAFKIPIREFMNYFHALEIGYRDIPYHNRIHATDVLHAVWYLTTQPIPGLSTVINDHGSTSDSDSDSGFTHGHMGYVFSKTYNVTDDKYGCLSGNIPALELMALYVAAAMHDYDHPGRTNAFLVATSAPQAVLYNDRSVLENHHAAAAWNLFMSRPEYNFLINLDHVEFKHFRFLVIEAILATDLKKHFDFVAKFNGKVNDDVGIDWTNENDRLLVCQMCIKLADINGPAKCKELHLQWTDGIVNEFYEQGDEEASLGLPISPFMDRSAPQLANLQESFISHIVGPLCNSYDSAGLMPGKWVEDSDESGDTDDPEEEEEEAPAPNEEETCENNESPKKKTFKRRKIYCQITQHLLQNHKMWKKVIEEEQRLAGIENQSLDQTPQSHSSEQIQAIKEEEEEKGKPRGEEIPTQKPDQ
Sequence of Mu-type opioid receptor (P35372 whole entry): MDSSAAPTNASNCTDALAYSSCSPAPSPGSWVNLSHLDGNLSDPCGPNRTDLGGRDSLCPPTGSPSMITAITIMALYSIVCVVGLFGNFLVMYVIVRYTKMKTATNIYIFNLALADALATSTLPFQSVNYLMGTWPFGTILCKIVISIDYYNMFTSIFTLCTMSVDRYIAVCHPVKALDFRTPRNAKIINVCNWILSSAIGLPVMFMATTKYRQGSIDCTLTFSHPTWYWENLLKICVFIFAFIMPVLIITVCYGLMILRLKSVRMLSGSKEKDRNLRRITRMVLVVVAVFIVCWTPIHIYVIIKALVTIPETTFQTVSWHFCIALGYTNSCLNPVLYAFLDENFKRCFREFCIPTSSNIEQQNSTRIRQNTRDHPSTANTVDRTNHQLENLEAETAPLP
Sequence of Muscarinic acetylcholine receptor M3 (P20309 whole entry): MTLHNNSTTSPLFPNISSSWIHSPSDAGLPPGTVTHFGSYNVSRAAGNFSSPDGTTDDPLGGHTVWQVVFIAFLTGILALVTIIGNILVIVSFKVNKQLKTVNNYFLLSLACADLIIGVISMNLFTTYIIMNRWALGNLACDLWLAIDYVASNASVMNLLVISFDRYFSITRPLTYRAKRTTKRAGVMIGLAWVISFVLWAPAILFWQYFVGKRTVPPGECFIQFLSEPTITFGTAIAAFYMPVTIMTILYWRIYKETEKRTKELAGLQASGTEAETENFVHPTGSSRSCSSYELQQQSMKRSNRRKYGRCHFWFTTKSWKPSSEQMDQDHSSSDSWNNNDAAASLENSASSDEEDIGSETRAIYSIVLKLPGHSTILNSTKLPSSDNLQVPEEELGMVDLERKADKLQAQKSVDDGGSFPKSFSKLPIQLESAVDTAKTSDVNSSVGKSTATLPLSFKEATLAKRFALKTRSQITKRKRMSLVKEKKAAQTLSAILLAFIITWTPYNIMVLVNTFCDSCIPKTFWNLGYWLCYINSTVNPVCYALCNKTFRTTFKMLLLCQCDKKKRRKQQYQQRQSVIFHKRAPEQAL
Sequence of 5-hydroxytryptamine receptor 2A (P28223 whole entry): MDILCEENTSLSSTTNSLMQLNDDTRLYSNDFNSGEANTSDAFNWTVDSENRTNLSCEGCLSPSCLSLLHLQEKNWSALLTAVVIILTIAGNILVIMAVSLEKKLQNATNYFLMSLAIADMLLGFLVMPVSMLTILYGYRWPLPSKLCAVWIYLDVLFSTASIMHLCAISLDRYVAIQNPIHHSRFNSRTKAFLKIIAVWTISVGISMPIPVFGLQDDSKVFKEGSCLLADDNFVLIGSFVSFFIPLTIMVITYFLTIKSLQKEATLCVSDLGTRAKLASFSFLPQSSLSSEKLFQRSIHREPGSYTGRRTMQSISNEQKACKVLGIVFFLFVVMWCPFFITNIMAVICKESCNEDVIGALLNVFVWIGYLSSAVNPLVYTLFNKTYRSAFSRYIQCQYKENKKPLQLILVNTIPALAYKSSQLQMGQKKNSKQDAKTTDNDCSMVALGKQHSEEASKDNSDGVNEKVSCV

Structure (SMILES) | AC50 [1] [µM] | AC50 [2] [µM] | AC50 [3] [µM] | AC50 [4] [µM] | AC50 [5] [µM] | AC50 [6] [µM] | AC50 [7] [µM] | AC50 [8] [µM] | AC50 [9] [µM] | AC50 [10] [µM] | AC50 [11] [µM]
C=CCc1ccccc1OCC(O)CNC(C)C (stereo unspecified) [ALPRENOLOL] | > 30 | > 30 | > 0.3 | > 30 | > 30 | > 30 | > 0.3 | > 30 | > 0.3 | > 30 | > 0.3
O=C(Cc1ccc(-c2ccccc2)cc1)Nc1ccccn1 [DIFENPIRAMIDE] |  | > 30 | > 30 | > 30 |  | > 30 | > 30 | > 30 | > 30 |  | > 10
O=C(OCC(O)CO)c1ccccc1Nc1ccnc2cc(Cl)ccc12 (stereo unspecified) [GLAFENINE] |  | > 30 | > 30 | > 30 | > 30 | > 30 | > 30 |  | 28.7 |  | 7.51
CC(C)Nc1ncccn1 [ISAXONINE] |  |  | > 30 |  |  |  | > 30 |  | > 30 |  | > 30
N[C@@H](C(=O)N[C@@H]1C(=O)N2C(C(=O)O)=C(Cl)CC[C@H]12)c1ccccc1 [LORACARBEF ANHYDROUS] |  |  | > 30 |  |  |  | > 30 |  | > 30 |  | > 30
OCCN1C[C@H](O)[C@@H](O)[C@H](O)[C@H]1CO [MIGLITOL] |  |  | > 30 |  |  |  | > 30 |  | > 30 |  | > 30
CC(=O)N[C@@H]1[C@@H](O)[C@H](O)[C@@H](CO)O[C@H]1O [N-ACETYLGLUCOSAMINE] |  |  | > 30 |  |  |  | > 30 |  | > 30 |  | > 30
O=C(CCNNC(=O)c1ccncc1)NCc1ccccc1 [NIALAMIDE] |  |  | > 30 |  |  |  | > 30 |  | > 30 |  | > 30
CC1(C)NC(=O)N(c2ccc([N+](=O)[O-])c(C(F)(F)F)c2)C1=O [NILUTAMIDE] | > 30 | > 30 | > 30 | > 30 | > 30 | > 30 | 12.7 | > 30 | > 30 | > 30 | > 3
CC[C@H]1[C@@H](O)[C@@H]2[C@H](CC[C@]3(C)[C@@H]([C@H](C)CCC(=O)O)CC[C@@H]23)[C@@]2(C)CC[C@@H](O)C[C@@H]12 [OBETICHOLIC ACID] | > 30 | > 30 | > 30 | > 30 | > 30 | > 30 | > 30 | > 30 | > 30 | > 30 | > 30
CC[N+]1(C)[C@@H]2CC(OC(=O)[C@H](CO)c3ccccc3)C[C@H]1[C@@H]1O[C@@H]12 (stereo partly specified) [OXITROPIUM] |  |  | > 30 |  |  |  | > 30 |  | > 30 |  | 0.003
CC(C)(C)NC[C@H](O)COc1ccccc1C1CCCC1 [PENBUTOLOL] |  |  | > 30 |  |  |  | > 30 |  | 11.9 |  | 13.5
CN(C)S(=O)(=O)c1ccc2c(c1)N(CCCN1CCC(CCO)CC1)c1ccccc1S2 [PIPOTIAZINE] |  |  | > 30 |  |  |  | > 30 |  | 3.4 |  | 7.84
COCCCN1CCC(NC(=O)c2cc(Cl)c(N)c3c2OCC3)CC1 [PRUCALOPRIDE] |  | > 30 | > 30 | > 30 | > 30 | > 30 | > 30 |  | > 30 |  | > 30
C=C[C@H]1C[N@@]2CC[C@H]1C[C@H]2[C@H](O)c1ccnc2ccc(OC)cc12 [QUININE] |  |  | > 30 |  |  |  | > 30 |  | 8.38 |  | > 30
CCC(=O)NCC[C@@H]1CCc2ccc3c(c21)CCO3 [RAMELTEON] |  |  | > 30 |  |  |  | > 30 |  | > 30 |  | > 30
CCOC(=O)[C@H](CCc1ccccc1)N[C@@H](C)C(=O)N1[C@H](C(=O)O)C[C@H]2CCCC[C@@H]21 [TRANDOLAPRIL] |  |  | > 30 |  |  |  | > 30 |  | > 30 |  | > 30
